Data from patent US20140230081A1, “POLYNUCLEOTIDE, POLYPEPTIDE, ANIMAL MODEL AND METHOD FOR THE DEVELOPMENT OF COMPLEMENT SYSTEM MODULATORS” (BAYER INTELLECTUAL PROPERTY GMBH, priority 2011, published 2014).
Values joined by “and” are separate entries in the source; they are usually repeats but may differ in a detail not shown here. Equal entries are not always repeated. Where two headings read alike, the source gives them in different places.

Columns and labels:
[1] = tested on: classical complement pathway; settings: cited from earlier work
hamster C5aR1 [2] = experiment: C5aR1 signalling via Calcium release (luminescence) in CHOmtCly_hamster-C5aR1/Galpha16 cells; format: cell-based; settings: peptide at 7 μM; three CHOmtCly_hamster-C5aR1/Galpha16 cell lines, respectively; measured for 60 seconds; listed as Bachem peptide 83462
Procedure: CHO K1 cell lines expressing mitochondrial Clytin (CHOmtCly) were co-transfected with the expression vector pcDNA3 harbouring the cDNA of hamster C5aR1 und pcDNA3-Galpha16 to allow the measurement of C5aR1 signalling via Calcium release (generated cells are named CHOmtCly_hamster-C5aR1/Galpha16). Control cells (CHOmtCly_pcDNA3) were generated by transfection of CHOmtCly cells with a corresponding amount of empty pcDNA3 vector only. In brief, 10^6 cells were transfected with 2 μg DNA by use of the Nucleofector (Amaxxa) program U-27. Transfected cells were seeded in 384-well MTP with a density of 250 cells per well. After 24 h incubation at 37° C. selection media containing a final concentration of 1 mg/ml G418 was added. After one week of selection plates were duplicated and tested for C5aR1 signalling. Cells were loaded with Coelenterazine for 3 h, than buffer or the C-terminal peptide of human C5a (Bachem H3462) was added at a final concentration of 7 μM. Luminescence (RLU) was measured for 60 seconds.
For activity measurement, three CHOmtCly_hamster-C5aR1/Galpha16 cell lines and three CHOmtCly cDNA3 cell lines were analyzed, respectively.
Target sequence in this assay (as listed by the source): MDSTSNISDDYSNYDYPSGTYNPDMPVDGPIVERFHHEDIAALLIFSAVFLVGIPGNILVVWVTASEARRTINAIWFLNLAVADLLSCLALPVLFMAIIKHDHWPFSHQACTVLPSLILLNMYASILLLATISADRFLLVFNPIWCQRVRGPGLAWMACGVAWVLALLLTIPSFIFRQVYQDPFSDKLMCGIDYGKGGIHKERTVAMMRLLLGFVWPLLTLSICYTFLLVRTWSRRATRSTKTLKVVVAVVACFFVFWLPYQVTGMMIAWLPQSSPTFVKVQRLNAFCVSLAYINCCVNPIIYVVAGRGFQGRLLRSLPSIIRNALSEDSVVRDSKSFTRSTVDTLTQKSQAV
Target sequence in this assay (P30679 whole entry partner): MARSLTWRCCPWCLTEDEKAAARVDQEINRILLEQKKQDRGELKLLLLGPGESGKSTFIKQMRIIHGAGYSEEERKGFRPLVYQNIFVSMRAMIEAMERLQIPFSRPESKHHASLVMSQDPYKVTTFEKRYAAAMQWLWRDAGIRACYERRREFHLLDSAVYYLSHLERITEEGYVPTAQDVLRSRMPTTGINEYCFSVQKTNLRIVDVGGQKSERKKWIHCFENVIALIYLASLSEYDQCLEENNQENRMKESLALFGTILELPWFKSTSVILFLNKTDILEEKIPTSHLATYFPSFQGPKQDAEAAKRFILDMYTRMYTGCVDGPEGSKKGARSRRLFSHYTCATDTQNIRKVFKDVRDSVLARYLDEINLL

[3] = tested on: complement-mediated tissue injury; settings: models of ischemia-reperfusion and animal models of human acute and chronic inflammatory diseases; cited from earlier work
[4] = in vivo; cited from earlier work
IL10 expression = experiment: CLP model in hamster, IL10 expression in tissues (TaqMan RT-PCR); format: in vivo, Syrian Hamster; settings: CLP+0.5 mg/kg, CLP+2.5 mg/kg and CLP+Alzet vs. CLP+vehicle, dose dependently
Procedure: (§1) Hamster tissues were pulverized by grinding with liquid nitrogen. Total RNA was extracted, DNase I digestion was performed to remove residual genomic DNA and the RNA were reverse transcribed using random hexamer primers. Quantitative TaqMan RT-PCR analysis was performed using the Applied Biosystems PRISM 7900 sequence detection system. The thermal protocol was set to 2 min at 50° C., followed by 10 min at 95° C. and by 40 cycles of 15 s at 95° C. and 1 min at 60° C. Results were normalized to L32 controls, and relative expression was calculated according to the following formula: relative expression=2̂(15−(CT(probe)−CT(L32))). The parameter CT is defined as the cycle number at which the amplification plot passes a fixed threshold above baseline.
(§2) Midline incision was made in the Linea Alba of the peritoneal cavity and the cecum was exposed. 50% of the cecum was tied off by placing a tight ligature around the cecum. For the CLP model two puncture wounds were made with an 18-gauge needle into the cecum and small amounts of cecal contents were expressed through the wounds, situs was flushed with 0.5 mL sterile saline. Finally, the cecum was replaced into the peritoneal cavity and the laparotomy site was closed. The sham group underwent abdominal surgery; the cecum was exposed and replaced without ligation or puncture of the cecum. Situs was flushed with 0.5 mL sterile saline and the laparotomy site was closed.
C5aR Antagonist was dissolved in DMSO and diluted with sterile saline solution. The final solution contained 5% DMSO. […]
(§3) Total RNA was isolated from hamster tissues with the Trizol-Reagent protocol according to the manufacturer's specifications (Invitrogen; USA). […] For relative quantitation of the mRNA distribution of IL10, IL6 and IL1b, total RNA from each sample was first reverse transcribed. […] For relative quantitation of the distribution of IL10, IL6 or IL1b mRNA the Applied Biosystems PRISM 7900 sequence detection system was used according to the manufacturer's specifications and protocols. PCR reactions were set up to quantitate IL 10, IL6 or IL1b and the housekeeping gene L32. […]

IL6 expression = experiment: CLP model in hamster, IL6 expression in tissues (TaqMan RT-PCR); format: in vivo, Syrian Hamster; settings: CLP+0.5 mg/kg, CLP+2.5 mg/kg and CLP+Alzet vs. CLP+vehicle, dose dependently
Procedure: as §1, with “baseline. […]” for “baseline.”
as §3

IL1b expression = experiment: CLP model in hamster, IL1b expression in tissues (TaqMan RT-PCR); format: in vivo, Syrian Hamster; settings: CLP+0.5 mg/kg, CLP+2.5 mg/kg and CLP+Alzet vs. CLP+vehicle; dose dependently; FIG. 11
Procedure: as §1, with “baseline. […]” for “baseline.”
as §3

white blood cell counts = experiment: CLP model in hamster, hemogram (white blood cell counts of EDTA whole blood); format: in vivo, Syrian Hamster; settings: CLP+0.5 mg/kg, CLP+2.5 mg/kg and CLP+Alzet compared to CLP+vehicle; FIG. 24
Procedure: Blood samples were obtained under light Isoflurane anesthesia from the cavernous sinus with a capillary at different time points/final exsanguination by cannulation of the carotid artery after 24 hr to allow measurements of differential blood counts. Blood samples for basal blood cell counts were collected from the cavernous sinus one week before study begin. Blood was collected into EDTA tubes and blood cell counts were performed on an automated cell counter.
as §2
C5aR Antagonist was dissolved in DMSO and diluted with sterile saline solution. The final solution contained 5% DMSO. […] The study medication was given s.c. 30 min before and 2 h after CLP surgery. […]

hamster C5aR1 [5] = experiment: Receptor activation of hamster C5aR1, reduction by antagonist; format: cell-based; settings: activated by human C5a ligand
C5aR [6] = settings: cynomolgus monkey neutrophils; cited from earlier work
C5aR [7] = settings: gerbil neutrophils; cited from earlier work
complement activation [8] = settings: cited from earlier work
[9] = tested on: porcine-to-human xenograft; settings: perfused with human blood; cited from earlier work
complement activation [10] = settings: cited from earlier work; remark: listed apart in the source
[11] = target: hamster C5aR1 polypeptide (hamster); experiment: cell-based or functional assay
Chain of hamster C5aR1 polypeptide (hamster) (chain, as listed by the source limits assumed): as the sequence (as listed by the source) above

CEGPFGPRHDLTFCW [2J]
IC50 [1]: 2 to 6 µM

H3462: C-terminal peptide of human C5a (Bachem H3462) (ISHKDMQLGR)
Luminescence (RLU) on stimulation (hamster C5aR1 [2]): 247943 RLU and 243143 RLU and 203151 RLU

sCR1: soluble version of recombinant human CR1 lacking the transmembrane and cytoplasmic domains
complement-mediated tissue injury [3]: reduce
half-life in circulation [4]: short

COc1ccc2c(c1)C(C(=O)N(Cc1ccc(N(C)C)cc1)c1ccc(C(C)C)cc1)CCC2.Cl (stereo not drawn) [W-54011]
expression of IL10 in kidney tissue (IL10 expression; FIG. 6): decreased
expression of IL10 in LV (left ventricle) tissue (IL10 expression; FIG. 7): decreased
expression of IL10 in lung tissue (IL10 expression; FIG. 8): decreased
expression of IL6 in LV (left ventricle) tissue (IL6 expression; FIG. 9): decreased
expression of IL6 in lung tissue (IL6 expression; FIG. 10): decreased
expression of IL1b in LV (left ventricle) tissue (IL1b expression): decreased
WBC (white blood cell counts) (white blood cell counts): higher
receptor activation of hamster C5aR1 (hamster C5aR1 [5]): can be reduced
inhibition of C5a-mediated responses (C5aR [6]): inhibits
inhibition of C5a-mediated responses (C5aR [7]): inhibits

CC[C@H](C)[C@H](N)C(=O)N[C@H]1CSSC[C@@H](C(=O)N[C@H](C(N)=O)[C@@H](C)O)NC(=O)[C@H](CCCN=C(N)N)NC(=O)[C@H](Cc2cnc[nH]2)NC(=O)[C@H](Cc2cnc[nH]2)NC(=O)CNC(=O)[C@H](Cc2c[nH]c3ccccc23)NC(=O)[C@H](CC(=O)O)NC(=O)[C@H](CCC(N)=O)NC(=O)[C@H](C(C)C)NC(=O)[C@H](C(C)C)NC1=O [Compstatin]
complement activation in human serum (complement activation [8]): inhibit
lifetime of a porcine-to-human xenograft [9]: prolongs
side effects (complement activation [10]; in vivo): without significant side effects
heparine and protamine-induced complement activation (complement activation [10]; primates): inhibit

C-terminal peptide of human C5a (Bachem H3462) (from UniProt P01031 742-751)
Luminescence (RLU), calcium release via mitochondrial Clytin, peptide at 7 µM, measured for 60 seconds; cell line 1 of 3 [11]: 248000 RLU
Luminescence (RLU), calcium release via mitochondrial Clytin, peptide at 7 µM, measured for 60 seconds; cell line 2 of 3 [11]: 243000 RLU
Luminescence (RLU), calcium release via mitochondrial Clytin, peptide at 7 µM, measured for 60 seconds; cell line 3 of 3 [11]: 203000 RLU
